These results are taken from patent publication US11944701B2, “Protection of materials by sphingosine based compounds” (STICHTING VU, priority 2012, dated 2024).

A short description of data set [1]: Erosion test: weight loss of HAP disks after exposure to citric acid. Particulars: for protection of HAP: 100 μg/ml in Tris-Tween, 3 hrs. As to the method:
Dental enamel consists largely of hydroxyapatite crystals (Ca10(PO4)6(OH)2. Sintered at high temperatures, hydroxyapatite discs can be produced with physical characteristics (e.g. hardness and density) resembling those of enamel (Anderson et al, 2004), which can be used to determine erosive properties of solutions (Jensdottir et al, 2005) by measuring weight loss from hydroxyapatite after immersion in an erosive (acidic) solution.
Hydroxyapatite discs, sintered at 1250° C. and with a relative density of 98% were obtained from Swerea, Stockholm, Sweden. The lateral and bottom surfaces of the discs were covered with nail polish so that one side remained uncoated. Next, discs were cleaned by sanding with sand paper (3M734 P600) rinsed with demineralised water, dried at 37° C. overnight and weighed to determine the initial mass. Hydroxyapatite discs were placed in the wells of 12 well cell culture plates (Greiner bio-one, Frickenhausen, Germany), to which was added 1.5 ml of phytosphingosine (PHS in various concentrations dissolved in saliva buffer (2 mM potassium phosphate, 50 mM KCl, 1 mM CaCl2, 0.1 mM MgCl2, pH 6.8) under gently shaking for 3 hours at 37° C. After three times rinsing with 4 ml saliva buffer to remove unbound PHS, discs were placed in new wells with 4 ml of 0.1 M citric acid (pH=3.0). After 30 minutes citric acid was pipetted off and discs were rinsed 3 times with 4 ml demineralized water, dried overnight at 37° C. and weighted. The difference in weight before and after the erosive treatment was taken as a measure for erosion. The experiments were conducted in triplicate and were repeated at least two times. Formation of saliva pellicle on HAP discs was achieved as follows: saliva was collected without conscious stimulation, as described previously (Navazesh, 1993). Saliva was cleared from cellular debris by centrifugation at 10,000 g for 10 minutes. The supernatant (HWS) was collected and used for coating HAP disks with a salivary pellicle. For this purpose, HAP disks were incubated with 4 ml HWS at 37° C. After 3 hrs, disks were rinsed 3 times with distilled water to remove unbound protein. Subsequently, the protective effect of PHS on saliva-coated HAP was tested as described above for bare HAP.
Protection of HAP against erosion was determined essentially as described by Jensdottir et al, (2005), by measuring weight loss from HAP disks before and after immersion in an erosive (acidic) solution using a Sartorius GD503 analytical precision scale. For the erosion experiments, the lateral and bottom surfaces of the disks were covered with nail polish leaving the circular upper surface uncoated. Next, disks were cleaned by sanding with fine sand paper (3M734 P600), rinsed with demineralised water, dried at 37° C. overnight and weighed to determine the initial mass. Stock solutions of lipids were prepared in ethanol to a concentration of 5 mg/ml. These stock solutions were diluted further to the desired concentration in the working buffer. Working solutions of PHS were prepared in saliva buffer (2 mM potassium phosphate, 50 mM KCl, 1 mM CaCl2, 0.1 mM MgCl2, pH 6.8) or in 20 mM Tris (pH 6.8) supplemented with 0.1% Tween 20 (Tris-Tween). HAP disks were placed in the wells of 12 well cell culture plates (Greiner bio-one, Frickenhausen, Germany), to which 1.5 ml of the lipid solutions was added and incubated under gentle shaking for 3 hours at 37° C. After three times rinsing with 4 ml of the incubation buffer to remove unbound lipid, disks were incubated with 4 ml of 0.1 M citric acid (pH=3.0). […] The difference in weight before and after the erosive treatment was taken as a measure for erosion. All incubations were conducted in triplicate and each experiment was repeated at least two times.

The test system of a further data set is Streptococcus mutans. In words: Antifouling activity of sphingolipids coated on HA discs. Format: cell-based. The note with it: HA discs coated with 100 μg/ml lipid; 2 hr with bacteria. As for the experimental part: (§1) Six different sphingolipids including PHS, PHS phosphate, Sphingosine, Sphinganine, Stearoyl PHS and Sphingomyelin were tested for their antifouling properties against two primary colonizers i.e.—Streptococcus sanguinis and Streptococcus gordonii and a late colonizer, Streptococcus mutans.
(§2) HA discs were incubated 0/N with 100 μg/ml lipid at 37° C. Subsequently, the discs were washed to remove unbound lipid. Then the lipid-coated HA discs were incubated for 2 hr with 1.5 ml of ˜10^7 cells/ml. After washing, the adherent bacterial cells were desorbed by sonication and transferred to agar plates. After 48 hr CFUs were counted.

In the next data set the test system is Streptococcus gordonii. Described as above. Type of data set: cell-based. Particulars: HA discs coated with 100 μg/ml lipid; 2 hr with bacteria. As to the method: as §1, §2
Data set [2] in a line: PHS adsorption to HAP (OPA fluorimetry). As to the method: PHS was dissolved in concentrations ranging from 0 to 500 μg/ml in 20 mM Tris buffer supplemented with 0.1% Tween 20 (pH 6.8) (Tris-Tween). Tween 20 was added to keep PHS in solution. Disks were incubated with the PHS solutions for 18 h, and then rinsed with demin water (3 times) to remove unbound PHS. HAP bound PHS was extracted by incubation with 1.5 ml methanol for 90 minutes. Since nail polish dissolved in methanol, in the binding experiments HAP disks were used without nail polish. It was verified that no PHS was adsorbed to the plastic, by conducting control incubations without disks. After evaporation, the residue was dissolved in 250 μl of methanol. To 100 of this solution 25 μl ortho-phtaldialdehyde reagent (OPA, Sigma-Aldrich) to enable fluorimetric quantification of bound PHS. Fluorescence was measured on a Fluostar microplate reader at excitation/emission wavelengths of 380 nm/450 nm. Absolute quantities were determined by reference to a standard curve of PHS. All incubations were conducted in triplicate and the experiment was repeated two times.

A short description of another data set: Solubility of PHS. Type of data set: physicochemical.
The conditions of data set [3]: in saliva buffer; cited from earlier work.
In another data set the test system is Streptococcus sanguinis. In words: Antifouling activity of sphingolipids coated on HA discs. Type of data set: cell-based. The note with it: HA discs coated with 100 μg/ml lipid; 2 hr with bacteria. As to the method: as §1, §2

Like-named read-outs stand apart in the source and are kept apart here.

As to “4-hydroxysphinganine-1-phosphate [PHS phosphate]”, the “protection against subsequent erosive attack by citric acid” value in data set [1] (200 μg/ml in saliva buffer) is given as “did not afford protection”.

`CCCCCCCCCCCCCCC(O)[C@@H](O)[C@@H](N)COP(=O)(O)O` (stereo partly drawn) [PHS phosphate, 4-hydroxysphinganine-1-phosphate]: the “protection of HAP” value in data set [1] (0.1 M citric acid 30 minutes) is listed as “protection that was comparable to that by PHS”. Besides, the “antifouling activity (reduction of adherent bacteria)” value in the data set with Streptococcus mutans is around 2 log CFU/ml. Moreover, the “reduction in bacterial adherence” value in the data set with Streptococcus gordonii is 1.5 log values.

With `CCCCCCCCCCCCCC[C@@H](O)[C@@H](O)[C@@H](N)CO` [PHS, phytosphingosine], the “PHS adsorbed onto the surface of the disk” value in data set [2] (at maximal adsorption (60 μg/ml and higher), Tris-Tween) is reported as “approximately 12 μg”. The “time to equilibrium of the initial fast phase of binding” value in data set [2] (biphasic time course, gradual increase over the next 15 hrs) was at most 1 h. The “PHS concentration at which maximal adsorption occurred” value in data set [2] (in Tris-Tween) is at least 60 µg/mL. Moreover, the “adsorption to saliva-incubated HAP disks compared to control” value in data set [2] (overnight incubation with saliva, then PHS, control saliva buffer) is listed as “even higher amounts of PHS adsorbed”. In data set [2] (within 5 minutes), the “share of the maximal adsorption level reached” value is reported as above 65%. Also, the amount adsorbed result in data set [2] (within one minute, fixed PHS concentration) is recorded as “substantial amount”. Also, the solubility entry in “Solubility of PHS” (in Tris-Tween, concentration before and after centrifugation 10 minutes 10,000 g) is on record as “completely soluble”; in “Solubility of PHS” (in water), “moderately soluble”; in data set [3], “poorly soluble”. Also, the “effect on the pH of citric acid” value in data set [1] is “no effect”. In data set [1] (0.1 M citric acid in the presence of 100 ug/ml PHS, 30 minutes, untreated HAP disks), the “protection when present in the erosive fluid” value was “protects against erosion even with untreated HAP disks”. Moreover, the “duration of the protective effect” value in data set [1] (1 hour exposure to citric acid, 50 μg/ml PHS (FIG. 3)) is “still protected”. Also, in data set [1] (20 hrs CHWS, then 100 μg/ml PHS in TrisT 3 hrs, 0.1 M citric acid 30 minutes), the “protection of disks covered with a salivary pellicle (CHWS) versus controls” value is on record as “protected to the same extent”. The “protection against dissolution by citric acid relative to the control disks” value in data set [1] (HAP discs pretreated, then 0.1 M citric acid (pH=3) for 30 minutes) is on record as “more than 80%”. The “PHS concentration at which virtually maximal protection was achieved” value in data set [1] (HAP disks incubated 3 hrs with PHS, citric acid 30 minutes) was above 20 µg/mL. The “protection of saliva-coated HAP versus uncoated HAP” value in data set [1] (HAP disks preincubated with human saliva (salivary pellicle)) is given as “to the same extent”. Moreover, the “protection at 500 and 50 μg/ml” value in data set [1] (PHS 500 and 50 μg/ml) was “comparable protection”. Moreover, the “protection at 5 ug/ml” value in data set [1] (PHS concentration lowered to 5 ug/ml) is “steep decrease in protection”. Moreover, the “protection with PHS dissolved in Tris-Tween compared with saliva buffer” value in data set [1] (PHS dissolved in Tris-Tween) is given as “essentially the same protection”. Moreover, the “less weight loss compared to the untreated control disks” value in data set [1] (PHS in saliva buffer, subsequent erosive challenge 0.1 M citric acid (pH=3) 30 minutes) is listed as 70-80%. The protection by pre-treatment result in data set [1] (pretreated 100 ug/ml 3 hours, 0.1 M citric acid (pH=3.0) 30 minutes) is on record as “protects against the erosive effects of citric acid”. For the same compound, in data set [1] (stock 5 mg/ml in DMSO or ethanol, with or without sonication, 3 hr incubation), the “effect of solvent used for stock solution on protection” value was “No difference”. In data set [1] (submaximal binding, 0.1 M citric acid (pH 3.0) 30 minutes), the “binding level at which protection is maximal” value was “approximately 6 μg per disk”.

For the compound `CCCCCCCCCCCCCCC[C@@H](O)[C@@H](N)CO` [Sphinganine], in data set [1] (0.1 M citric acid 30 minutes), the “protection of HAP” value is reported as “protection that was comparable to that by PHS”. Further, in data set [1] (FIG. 8), the “effect of phosphate in the buffer on efficacy” value is “more effective when provided in a buffer not containing, or containing a minimal amount of, phosphate”. Further, the “protection against citric acid” value is reported as “protected against citric acid” in data set [1] (used in a Tris buffer (FIG. 8)) and “not when used in a buffer containing phosphate ions” in data set [1] (used in a buffer containing phosphate ions). For the same compound, the “reduction of adherent bacteria” value in the data set on Streptococcus mutans is on record as 3 log. For the same compound, the “reduction in bacterial adherence” value turned out to be 1.5 log values in the data set on Streptococcus gordonii and 2 log value in the data set with Streptococcus sanguinis.

Consider `CCCCCCCCCCCCCCCCCC(=O)N[C@@H](CO)[C@H](O)C(O)CCCCCCCCCCCCCC` (stereo partly drawn) [Stearoyl PHS, N-stearoyl 4-4-hydroxysphinganine], for which, in the data set with Streptococcus mutans, the “antifouling activity (reduction of adherent bacteria)” value is on record as around 2 log CFU/ml.

On to `CCCCCCCCCCCCC/C=C/[C@@H](O)[C@@H](N)CO` [sphingosine], for which the “protection of HAP” value in data set [1] (0.1 M citric acid 30 minutes) is recorded as “protection that was comparable to that by PHS”.

As for “Di-myroistyl phosphatidylcholine [reference compound]”, the “protection of HAP” value in data set [1] (0.1 M citric acid 30 minutes) was “did not protect HAP”.

Take sphingomyelin [reference compound]: the “protection of HAP” value in data set [1] (0.1 M citric acid 30 minutes) is reported as “did not protect HAP”. In addition, the “reduction in bacterial adherence” value in the data set with Streptococcus sanguinis amounted to 1 log value.
